Assay [1] relates to E. coli 287 (ATCC #11775). The assay is classed as cell-based.
The test system of the next assay is E. coli MG1655. It counts as cell-based.
The test system of another assay is S. typhimurium hisF645. The assay is classed as cell-based, Salmonella typhimurium.
For assay [2], the system named is Escherichia coli (ATCC#25922). Description: microbe, parasite or virus in culture. It counts as cell-based.
Assay [3] relates to Staphylococcus aureus (ATCC #29213). The assay can be described thus: microbe, parasite or virus in culture. It counts as cell-based.
[4] abbreviates: Escherichia coli, ATCC25922, 18 h.
Where [5] appears, read: Staphylococcus aureus, ATCC29213, 18 h.

In brackets after ≈: the same amount, converted by molar mass. Read-outs that look alike come from different tables or passages of the source.

As for `N[C@@H](Cc1c[nH]cn1)C(=O)O` [L-histidine], the “carbon source utilization result” value in assay [1] was “negative”. Also, the “suitability as nitrogen source (growth, purple color)” value in the assay with E. coli MG1655 was “not suitable”. Also, the “growth stimulation by supplement (well color)” value with S. typhimurium hisF645 is “turned purple”.
Turning to `CN(C)[C@@H]1C(O)=C(C(N)=O)C(=O)[C@@]2(O)C(O)=C3C(=O)c4c(O)cccc4[C@@](C)(O)[C@H]3C[C@@H]12` [Tetracycline, tetracycline], the MIC in assay [2] (setting [4]) lay in the range of 0.5 to 1 µg/mL (≈ 1.13 to 2.25 µM); in assay [3], 0.25 to 1 µg/mL; in assay [3] (setting [5]), 0.25 to 2 µg/mL (≈ 0.563 to 4.5 µM).
`NC[C@H]1O[C@H](O[C@H]2[C@H](O)[C@@H](O[C@H]3O[C@H](CO)[C@@H](O)[C@H](N)[C@H]3O)[C@H](N)C[C@@H]2N)[C@H](O)[C@@H](O)[C@@H]1O` [Kanamycin, kanamycin]: the MIC in assay [2] fell in the range of 8 to 16 µg/mL; in assay [2] (setting [4]), 16 to 32 µg/mL (≈ 33 to 66 µM); in assay [3] (setting [5]), 16 to 32 µg/mL (≈ 33 to 66 µM).
With `CC1(C)S[C@@H]2[C@H](NC(=O)[C@H](N)c3ccccc3)C(=O)N2[C@H]1C(=O)O` [Ampicillin, ampicillin], the MIC was 2 to 4 µg/mL in assay [2], 1 to 2 µg/mL (≈ 2.86 to 5.72 µM) in assay [2] (setting [4]), 1 to 2 µg/mL in assay [3] and 1 to 4 µg/mL (≈ 2.86 to 11.4 µM) in assay [3] (setting [5]).
